Experimental data as given in ChEMBL document CHEMBL3045223, “Synthesis, nematicidal and antimicrobial properties of Bis-[4-methoxy-3-[3-(4-fluorophenyl)-6-(4-methylphenyl)-2(aryl)-tetrahydro-2H-pyrazolo[3,4-d]thiazol-5-yl]phenyl]methanes” (2009).
Converted amounts (≈) assume the structure as drawn. The source made the active and inactive calls. The calls are words filed in the database; no cut-off is given here.

Assays:
Type in all cases: functional
[1] = test system: Trichophyton mentagrophytes; assay: Antifungal activity against Trichophyton mentagrophytes IFO 40996 assessed as growth inhibition at 37 degC for 48 hr; details: IFO 40996, 48 h
Trichophyton rubrum [2] = assay: Antifungal activity against Trichophyton rubrum IFO 9185 assessed as growth inhibition at 37 degC for 48 hr; details: IFO 9185, 48 h
Aspergillus fumigatus [3] = assay: Antifungal activity against Aspergillus fumigatus HIC 6094 assessed as growth inhibition at 37 degC for 48 hr
Candida albicans [4] = assay: Antifungal activity against Candida albicans ATCC 10231 assessed as growth inhibition at 37 degC for 48 hr
[5] = test system: Trichophyton mentagrophytes; assay: Antifungal activity against Trichophyton mentagrophytes IFO 40996 assessed as growth inhibition at 300 ug/disc at 37 degC for 48 hr; details: for zone of inhibition at 300 µg/disc: IFO 40996, 48 h, read-out: IZ
Trichophyton rubrum [6] = assay: Antifungal activity against Trichophyton rubrum IFO 9185 assessed as growth inhibition at 300 ug/disk at 37 degC for 48 hr
Aspergillus fumigatus [7] = assay: Antifungal activity against Aspergillus fumigatus HIC 6094 assessed as growth inhibition at 300 ug/disc at 37 degC for 48 hr; details: for zone of inhibition at 300 µg/disc: HIC 6094, 48 h, read-out: IZ
Candida albicans [8] = assay: Antifungal activity against Candida albicans ATCC 10231 assessed as growth inhibition at 300 ug/disk at 37 degC for 48 hr; details: ATCC 10231, 48 h, read-out: IZ
[9] = test system: Chromobacterium violaceum; assay: Antibacterial activity against Chromobacterium violaceum MTCC 2656 assessed as growth arrest at 37 degC for 24 hr; details: MTCC 2656, 24 h
Klebsiella aerogenes [10] = assay: Antibacterial activity against Enterobacter aerogenes MTCC 39 assessed as growth arrest at 37 degC for 24 hr; details: MTCC 39, 24 h
Pseudomonas aeruginosa [11] = assay: Antibacterial activity against Pseudomonas aeruginosa MTCC 741 assessed as growth arrest at 37 degC for 24 hr; details: MTCC 741, 24 h
Staphylococcus aureus [12] = assay: Antibacterial activity against Staphylococcus aureus MTCC 96 assessed as growth arrest at 37 degC for 24 hr; details: MTCC 96, 24 h
[13] = test system: Lysinibacillus sphaericus; assay: Antibacterial activity against Lysinibacillus sphaericus MTCC 11 assessed as growth arrest at 37 degC for 24 hr; details: MTCC 11, 24 h
Bacillus subtilis [14] = assay: Antibacterial activity against Bacillus subtilis MTCC 441 assessed as growth arrest at 37 degC for 24 hr; details: MTCC 441, 24 h
[15] = test system: Chromobacterium violaceum; assay: Antibacterial activity against Chromobacterium violaceum MTCC 2656 assessed as inhibition zones at 300 ug/disk at 37 degC for 24 hr; details: MTCC 2656, 24 h, read-out: IZ
Klebsiella aerogenes [16] = assay: Antibacterial activity against Enterobacter aerogenes MTCC 39 assessed as inhibition zones at 300 ug/disk at 37 degC for 24 hr; details: MTCC 39, 24 h, read-out: IZ
Pseudomonas aeruginosa [17] = assay: Antibacterial activity against Pseudomonas aeruginosa MTCC 741 assessed as inhibition zones at 300 ug/disk at 37 degC for 24 hr; details: MTCC 741, 24 h, read-out: IZ
Staphylococcus aureus [18] = assay: Antibacterial activity against Staphylococcus aureus MTCC 96 assessed as inhibition zones at 300 ug/disc at 37 degC for 24 hr; details: MTCC 96, 24 h, read-out: IZ
[19] = test system: Lysinibacillus sphaericus; assay: Antibacterial activity against Lysinibacillus sphaericus MTCC 11 assessed as inhibition zones at 300 ug/disk at 37 degC for 24 hr; details: MTCC 11, 24 h, read-out: IZ
Bacillus subtilis [20] = assay: Antibacterial activity against Bacillus subtilis MTCC 441 assessed as inhibition zones at 300 ug/disk at 37 degC for 24 hr; details: MTCC 441, 24 h, read-out: IZ
Caenorhabditis elegans = assay: Nematicidal activity against Caenorhabditis elegans assessed as immobility; details: read-out: LD50 (the source's name)
[21] = test system: Ditylenchus myceliophagus; assay: Nematicidal activity against Ditylenchus myceliophagus assessed as immobility; details: read-out: LD50 (the source's name)

SMILES	MBC [1]	MIC [1]	MBC (Trichophyton rubrum [2])	MIC (Trichophyton rubrum [2])	zone of inhibition at 300 µg/disc (Candida albicans [8])	MBC [9]	MIC [9]	MBC (Klebsiella aerogenes [10])	MIC (Klebsiella aerogenes [10])	MBC (Pseudomonas aeruginosa [11])	MIC (Pseudomonas aeruginosa [11])	MBC (Staphylococcus aureus [12])	MIC (Staphylococcus aureus [12])	MBC [13]	MIC [13]	MBC (Bacillus subtilis [14])	MIC (Bacillus subtilis [14])	zone of inhibition at 300 µg/disc [15]	zone of inhibition at 300 µg/disc (Klebsiella aerogenes [16])	zone of inhibition at 300 µg/disc (Pseudomonas aeruginosa [17])	further results
COc1ccc(Cc2ccc(OC)c(C3SC4C(=NN(c5ccccc5)C4c4ccc(F)cc4)N3c3ccc([N+](=O)[O-])cc3)c2)cc1C1SC2C(=NN(c3ccccc3)C2c2ccc(F)cc2)N1c1ccc([N+](=O)[O-])cc1 (stereo unspecified)	12.5 µg/mL (≈ 11.7 µM)	12.5 µg/mL (≈ 11.7 µM)	25 µg/mL (≈ 23.5 µM)	6.25 µg/mL (≈ 5.87 µM)	8 mm	50 µg/mL (≈ 46.9 µM)	25 µg/mL (≈ 23.5 µM)	25 µg/mL (≈ 23.5 µM)	12.5 µg/mL (≈ 11.7 µM)	25 µg/mL (≈ 23.5 µM)	6.25 µg/mL (≈ 5.87 µM)	25 µg/mL (≈ 23.5 µM)	6.25 µg/mL (≈ 5.87 µM)	12.5 µg/mL (≈ 11.7 µM)	6.25 µg/mL (≈ 5.87 µM)	25 µg/mL (≈ 23.5 µM)	12.5 µg/mL (≈ 11.7 µM)	11 mm	24 mm	11 mm	MBC (Aspergillus fumigatus [3]; HIC 6094, 48 h): 50 µg/mL (≈ 46.9 µM); MIC (Aspergillus fumigatus [3]; HIC 6094, 48 h): 12.5 µg/mL (≈ 11.7 µM); MBC (Candida albicans [4]; ATCC 10231, 48 h): 25 µg/mL (≈ 23.5 µM); MIC (Candida albicans [4]; ATCC 10231, 48 h): 12.5 µg/mL (≈ 11.7 µM); zone of inhibition at 300 µg/disc [5]: 9 mm; zone of inhibition at 300 µg/disc (Trichophyton rubrum [6]; IFO 9185, 48 h, read-out: IZ): 10 mm; zone of inhibition at 300 µg/disc (Aspergillus fumigatus [7]): 11 mm; zone of inhibition at 300 µg/disc (Staphylococcus aureus [18]): 20 mm; zone of inhibition at 300 µg/disc [19]: 22 mm; zone of inhibition at 300 µg/disc (Bacillus subtilis [20]): 21 mm; LC50 (Caenorhabditis elegans): 620 µg/mL (≈ 582 µM); LC50 [21]: 800 µg/mL (≈ 751 µM)
COc1ccc(N2N=C3C(SC(c4cc(Cc5ccc(OC)c(C6SC7C(=NN(c8ccc(OC)cc8)C7c7ccc(F)cc7)N6c6ccc(Cl)cc6)c5)ccc4OC)N3c3ccc(Cl)cc3)C2c2ccc(F)cc2)cc1 (stereo unspecified)	50 µg/mL (≈ 45.3 µM)	25 µg/mL (≈ 22.6 µM)	50 µg/mL (≈ 45.3 µM)	25 µg/mL (≈ 22.6 µM)	14 mm	50 µg/mL (≈ 45.3 µM)	6.25 µg/mL (≈ 5.66 µM)	25 µg/mL (≈ 22.6 µM)	12.5 µg/mL (≈ 11.3 µM)	50 µg/mL (≈ 45.3 µM)	12.5 µg/mL (≈ 11.3 µM)	25 µg/mL (≈ 22.6 µM)	12.5 µg/mL (≈ 11.3 µM)	50 µg/mL (≈ 45.3 µM)	12.5 µg/mL (≈ 11.3 µM)	12.5 µg/mL (≈ 11.3 µM)	12.5 µg/mL (≈ 11.3 µM)	23 mm	21 mm	20 mm	MBC (Aspergillus fumigatus [3]): inactive; MIC (Aspergillus fumigatus [3]): inactive; MBC (Candida albicans [4]; ATCC 10231, 48 h): 50 µg/mL (≈ 45.3 µM); MIC (Candida albicans [4]; ATCC 10231, 48 h): 25 µg/mL (≈ 22.6 µM); inhibition zone (IZ) [5]: inactive; inhibition zone (IZ) (Trichophyton rubrum [6]): inactive; inhibition zone (IZ) (Aspergillus fumigatus [7]): inactive; zone of inhibition at 300 µg/disc (Staphylococcus aureus [18]): 28 mm; zone of inhibition at 300 µg/disc [19]: 16 mm; zone of inhibition at 300 µg/disc (Bacillus subtilis [20]): 17 mm; LC50 (Caenorhabditis elegans): 820 µg/mL (≈ 743 µM); LC50 [21]: 900 µg/mL (≈ 815 µM)
COc1ccc(Cc2ccc(OC)c(C3SC4C(=NN(c5ccccc5)C4c4ccc(F)cc4)N3c3ccc(C)cc3)c2)cc1C1SC2C(=NN(c3ccccc3)C2c2ccc(F)cc2)N1c1ccc(C)cc1 (stereo unspecified)	25 µg/mL (≈ 24.9 µM)	25 µg/mL (≈ 24.9 µM)	50 µg/mL (≈ 49.8 µM)	25 µg/mL (≈ 24.9 µM)	11 mm	25 µg/mL (≈ 24.9 µM)	25 µg/mL (≈ 24.9 µM)	25 µg/mL (≈ 24.9 µM)	12.5 µg/mL (≈ 12.5 µM)	50 µg/mL (≈ 49.8 µM)	12.5 µg/mL (≈ 12.5 µM)	12.5 µg/mL (≈ 12.5 µM)	12.5 µg/mL (≈ 12.5 µM)	50 µg/mL (≈ 49.8 µM)	25 µg/mL (≈ 24.9 µM)	25 µg/mL (≈ 24.9 µM)	12.5 µg/mL (≈ 12.5 µM)	19 mm	17 mm	18 mm	MBC (Aspergillus fumigatus [3]; HIC 6094, 48 h): 25 µg/mL (≈ 24.9 µM); MIC (Aspergillus fumigatus [3]; HIC 6094, 48 h): 25 µg/mL (≈ 24.9 µM); MBC (Candida albicans [4]): inactive; MIC (Candida albicans [4]): inactive; zone of inhibition at 300 µg/disc [5]: 9 mm; inhibition zone (IZ) (Trichophyton rubrum [6]): inactive; zone of inhibition at 300 µg/disc (Aspergillus fumigatus [7]): 10 mm; zone of inhibition at 300 µg/disc (Staphylococcus aureus [18]): 27 mm; zone of inhibition at 300 µg/disc [19]: 16 mm; zone of inhibition at 300 µg/disc (Bacillus subtilis [20]): 14 mm; LC50 (Caenorhabditis elegans): 670 µg/mL (≈ 668 µM); LC50 [21]: 850 µg/mL (≈ 847 µM)
